Measurements taken from patent US20040162247A1, “Therapeutic agent or osteoporosis comprising an active ingredient of quercetin derivatives” (priority 2000, published 2004).

Columns and labels:
ovariectomized rats [1] = assay: Trabecular bone area of lumbars in ovariectomized rats;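 for Change Rate (%) of TBA of lumbars, of control group: control group rats were ovariectomized and are not the sham group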; type: in vivo, Female SD (Sprague-Dawley) rats; details: OVX rats, 9 weeks i.p. (E2 1 μg/kg/day; quercetin, genistein 10 mg/kg/day); for Change Rate (%) of TBA of lumbars, of control group: control group = 100
Experimental: (§1) Trabecular bone area (TBA) of lumbar and tibia removed from the rats of each group which was treated with various agents for 9 weeks were measured as follows: that is, using a digitalizer of quantitative image analysis system (Wild Leitz Co.), image of each trabecula was obtained on computer monitor by drawing a contour of the trabecula, and then, using a computer, calculated were average areas of trabeculae within a rectangle of 2×10^6 μm^2 area wherein the width is about ⅔ of the length of growth plate which located underneath of growth plate at proximity of tibia. Also, following the number of trabeculae within the rectangle were obtained, average area was multiplied by the number of trabeculae to obtain trabecular bone area of each sample bone, which was analyzed statistically (see: Table 5).
TBAs of lumbars removed from the animal treated with test agents for 9 weeks were measured employing the same method above (see: Table 6).

ovariectomized rats [2] = assay: Biochemical parameters in plasma of ovariectomized rats; type: in vivo, Female SD (Sprague-Dawley) rats
Experimental: (§2) When test agents were administered, for a certain period of time before and after administration, 1.5 ml of blood was sampled from tail vein using a catheter (B.D Co.: 24 G) and subjected to complete blood count (Coulter Co.: JT) and biochemical analyses of plasma (Crone Co.: Airon® 200). During autopsy, blood was sampled from caudal venae cavae and subjected to the analyses above. And then, each sample was frozen to store for measurement of trabecular bone area of femur and examination of internal organs.
Since blood reflects the condition of body, safety of quercetin in the body was evaluated by measuring biochemical parameters: that is, blood samples were obtained from the rat prior to operation, one week after operation, and 10 weeks after operation, and measured were levels of alkaline phosphatase (ALP), calcium, inorganic phosphate, blood urea nitrogen (BUN), creatinin, total cholesterol, HDL-cholesterol and LDL-cholesterol (see: Table 8).

ovariectomized rats [3] = assay: Complete blood count in ovariectomized rats; type: in vivo, Female SD (Sprague-Dawley) rats
Experimental: as §2
Complete blood count which reflects the condition and abnormality of the body was measured to find out abnormality in test animals caused by administrtion of agents. That is, to find out changes in hematopoiesis of test rats, measured were red blood cell (RBC) count, concentration of hemoglobin (Hb) and hematocrit (Ht) of-blood samples obtained from the rats prior to operation and the rats 10 weeks after administrating agents following operation, and to find out changes in immune system such as inflammation and necrosis of tissues, measured were white blood cell count, lymphocyte count, monocyte count, and granulocyte count (see: Table 7).

[4] = tested on: human osteoblast-like cell line Saos-2; assay: Cell proliferation of Saos-2 cells, MTT method; type: cell-based; details: Saos-2, 3 days
Experimental: Saos-2 cell line which has similar properties to osteoblasts was obtained from Korean Cell Line Bank affiliated to the Cancer Research Institute of School of Medicine, Seoul National University.
Saos-2 cells were seeded in a RPMI 1640 medium (Gibco BRL, U.S.A.) supplemented with 10% (v/v) FBS, 100 unit/ml penicillin, 100 gg/ml streptomycin and grown to form a monolayer in an incubator at 37° C. under an environment of 5% (v/v) CO2 and saturated humidity. The culture was fed with fresh medium 2 to 3 times a week and subcultured once a week using 0.25% (w/v) trypsin.
Saos-2 cells were distributed into a 96-well plate (20,000 cells/well) and quercetin in 1% DMSO was added to a final concentration of 10-2 to 10^−9 mg/ml, 6 wells per each concentration. As a control group, cells without quercetin were used, and as a comparative group, the cells treated with various concentrations of genistein, being studied as a therapeutic agent for osteoporosis, were used. Cells were grown in an incubator at 37° C. for 3 days and incubated 4 more hours under the same condition after adding MTT (3-[4,5-dimethylthiazol-2-yl]-2,5-diphenyltetrazolium bromide, Triazolyl Blue) to a concentration of 0.05 mg/ml. Then, purple colored for-mazan formed in proportion to the number of viable cells was dissolved in DMSO and measured OD at 550 nm employing ELISA reader.
Cell proliferation rate (%) was evaluated by calculating the ratio of the OD of quercetin added well to the OD of control well, wherein, average value of ODs from 6 wells treated with the same concentration of quercetin was employed (see: Table 1).
cell proliferation rate (%)={(average value of OD at 550 nm of quercetin-treated wells—average value of OD at 550 nm of empty wells)/average value of OD at 550 nm of control wells}×100

ovariectomized rats [5] = assay: Trabecular bone area of tibia in ovariectomized rats;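 for Change Rate (%) of TBA of tibia, of control group: control group rats were ovariectomized and are not the sham group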; type: in vivo, Female SD (Sprague-Dawley) rats; details: OVX rats, 9 weeks i.p. (E2 1 μg/kg/day; quercetin, genistein 10 mg/kg/day); for Change Rate (%) of TBA of tibia, of control group: control group = 100
Experimental: as §1

[6] = tested on: ALP activity in osteoblasts (Saos-2); assay: Alkaline phosphatase (ALP) activity in osteoblasts; type: cell-based, human; details: Saos-2, 3 days
Experimental: Since osteoblasts have cell specific alkaline phosphatase activity, the effect of quercetin of the invention on ALP activity in osteoblasts was evaluated as follows: the number of cells, concentration of tested agent, and culture condition were same as those used in MTT experiment of Example 1-2, and cells were harvested after 3 day-incubation. Genistein was used as a comparative agent. ALP activity was evaluated by analysing changes of OD at 405 nm result from hydrolysis of p-nitrophenylphosphate to p-nitrophenol and phosphate (see: Table 1).

[7] = 1 week after operation (start of administration)
[8] = 10 weeks after operation, 9 weeks i.p. (E2 1 μg/kg/day; quercetin, genistein 10 mg/kg/day)
[9] = after operation and drug administration (E2 1 μg/kg/day; quercetin, genistein 10 mg/kg/day i.p.)

## O=c1c(-c2ccc(O)cc2)coc2cc(O)cc(O)c12 [Genistein, genistein]
Ovariectomized rats [1]
  TBA (trabecular bone area) of lumbars: 86.58 ± 3.00 ×10^4 μm^2
  Change Rate (%) of TBA of lumbars, of control group: 128.23 ± 4.45 %
Ovariectomized rats [1]; listed as genistein
  Change Rate (%) of TBA of lumbars, of control group: 128%
Ovariectomized rats [2]; [7]
  Concentration of ALP in plasma: 212.10 ± 17.92 U/dL
  Concentration of HDL-cholesterol in plasma: 35.26 ± 1.92 mg/dL
  Concentration of LDL-cholesterol in plasma: 60.47 ± 7.04 mg/dL
  Concentration of blood urea nitrogen (BUN): 18.26 ± 0.94 mg/dL
  Concentration of calcium in plasma: 8.97 ± 0.29 mg/dL
  Concentration of creatinin in plasma: 0.64 ± 0.02 mg/dL
  Concentration of inorganic phosphate in plasma: 6.47 ± 0.16 mg/dL
  Concentration of total cholesterol in plasma: 91.56 ± 3.65 mg/dL
Ovariectomized rats [2]; [8]
  Concentration of ALP in plasma: 127.14 ± 9.95^##$$ U/dL
  Concentration of HDL-cholesterol in plasma: 29.27 ± 1.98 mg/dL
  Concentration of LDL-cholesterol in plasma: 91.80 ± 6.57^##$$ mg/dL
  Concentration of blood urea nitrogen (BUN): 18.31 ± 0.86 mg/dL
  Concentration of calcium in plasma: 10.44 ± 0.22^$ mg/dL
  Concentration of creatinin in plasma: 0.82 ± 0.04^##$ mg/dL
  Concentration of inorganic phosphate in plasma: 5.62 ± 0.25 mg/dL
  Concentration of total cholesterol in plasma: 121.07 ± 6.53 mg/dL
Ovariectomized rats [2]; OVX rats, 10 mg/kg/day i.p.
  Level of inorganic phosphate 10 weeks after operation versus prior to operation (in words): remarkably decreased
  Plasma ALP activity 10 weeks after operation versus prior to and one week after operation (in words): significant decrease of ALP activity
Ovariectomized rats [2]; before operation (baseline)
  Concentration of ALP in plasma: 208.86 ± 19.72 U/dL
  Concentration of HDL-cholesterol in plasma: 61.12 ± 3.57 mg/dL
  Concentration of LDL-cholesterol in plasma: 24.39 ± 3.63 mg/dL
  Concentration of blood urea nitrogen (BUN): 16.82 ± 0.60 mg/dL
  Concentration of calcium in plasma: 10.61 ± 0.49 mg/dL
  Concentration of creatinin in plasma: 0.51 ± 0.04 mg/dL
  Concentration of inorganic phosphate in plasma: 7.18 ± 0.48 mg/dL
  Concentration of total cholesterol in plasma: 85.51 ± 5.45 mg/dL
Ovariectomized rats [3]; OVX rats after drug administration
  White blood cell count, before versus after operation (in words): did not show any changes
Ovariectomized rats [3]; [9]
  Concentration of hemoglobin(Hb): 14.70 ± 0.22 g/dL
  Granulocyte count: 2.38 ± 0.37 ×10^3 cells/μl
  Hematocrit(Ht): 40.66 ± 0.56 %
  Lymphocyte count: 15.25 ± 3.21 ×10^3 cells/μl
  Monocyte count: 0.80 ± 0.19 ×10^3 cells/μl
  Red blood cell(RBC) count: 7.17 ± 0.13 ×10^6 cells/μl
  White blood cell count: 21.50 ± 2.53 ×10^3 cells/μl
Ovariectomized rats [3]; before operation (baseline)
  Concentration of hemoglobin(Hb): 15.82 ± 0.27 g/dL
  Granulocyte count: 2.23 ± 0.10 ×10^3 cells/μl
  Hematocrit(Ht): 42.76 ± 0.65%
  Lymphocyte count: 19.68 ± 4.52 ×10^3 cells/μl
  Monocyte count: 0.77 ± 0.09 ×10^3 cells/μl
  Red blood cell(RBC) count: 7.32 ± 0.13 ×10^6 cells/μl
  White blood cell count: 27.30 ± 4.85 ×10^3 cells/μl
[4]; 1 × 10^−2 mg/ml
  MTT assay (% of control group): 66.2 ± 2.8 % of control group
[4]; 1 × 10^−2 mg/ml, listed as genistein
  MTT assay (% of control group): 66 % of control group
[4]; 1 × 10^−3 mg/ml
  MTT assay (% of control group): 85.5 ± 1.1 % of control group
[4]; 1 × 10^−3 mg/ml, listed as genistein
  MTT assay (% of control group): 86 % of control group
[4]; 1 × 10^−4 mg/ml
  MTT assay (% of control group): 95.7 ± 0.7 % of control group
[4]; 1 × 10^−5 mg/ml
  MTT assay (% of control group): 97.3 ± 1.6 % of control group
[4]; 1 × 10^−6 mg/ml
  MTT assay (% of control group): 90.5 ± 0.9 % of control group
[4]; 1 × 10^−6 mg/ml, listed as genistein
  MTT assay (% of control group): 90.5 % of control group
[4]; 1 × 10^−7 mg/ml
  MTT assay (% of control group): 95.9 ± 1.6 % of control group
[4]; 1 × 10^−8 mg/ml
  MTT assay (% of control group): 96.9 ± 2.7 % of control group
[4]; 1 × 10^−9 mg/ml
  MTT assay (% of control group): 91.3 ± 0.6 % of control group
[4]; 1 × 10^−9 mg/ml, listed as genistein
  MTT assay (% of control group): 91 % of control group
Ovariectomized rats [5]
  TBA (trabecular bone area) of tibia: 47.65 ± 2.07 ×10^4 μm^2
  Change Rate (%) of TBA of tibia, of control group: 137.62 ± 5.98%
Ovariectomized rats [5]; listed as genistein
  Change Rate (%) of TBA of tibia, of control group: 138%
[6]; 1 × 10^−2 mg/ml
  ALP activity (% of control group): 62.3 ± 3.4 % of control group
[6]; 1 × 10^−3 mg/ml
  ALP activity (% of control group): 98.8 ± 6.9 % of control group
[6]; 1 × 10^−4 mg/ml
  ALP activity (% of control group): 121.1 ± 6.2 % of control group
[6]; 1 × 10^−4 mg/ml, listed as genistein
  ALP activity (% of control group): 121 % of control group
[6]; 1 × 10^−5 mg/ml
  ALP activity (% of control group): 113.5 ± 7.3 % of control group
[6]; 1 × 10^−6 mg/ml
  ALP activity (% of control group): 103.8 ± 8.7 % of control group
[6]; 1 × 10^−7 mg/ml
  ALP activity (% of control group): 109.3 ± 9.6 % of control group
[6]; 1 × 10^−8 mg/ml
  ALP activity (% of control group): 101.5 ± 8.8 % of control group
[6]; 1 × 10^−9 mg/ml
  ALP activity (% of control group): 106.1 ± 6.4 % of control group
